Test results taken from ChEMBL document CHEMBL1122361, “Synthesis and antineoplastic activity of 3'-azido and 3'-amino analogues of pyrimidine deoxyribonucleoside” (1983).
Active and inactive are the calls of the source. The calls are words filed in the database; no cut-off is given here.

How the values were obtained:
[1] = Ability to effect the replication of S-180 cells in vitro; assay type: functional; conditions: Mus musculus, read-out: ID50 (the source's name)
L1210 [2] = assay: Ability to effect the replication of L1210 cells in vitro; assay type: functional; conditions: Mus musculus, read-out: ID50 (the source's name)
Mus musculus = assay: Ratio of treated to that of control was determined in mice tested in vivo(on day 31); assay type: functional
L1210 [3] = assay: Ability to effect the replication of L1210 cells in vitro; IN-Inactive; assay type: functional, cell-based; conditions: Mus musculus

SMILES	IC50 [1] [µM]	IC50 (L1210 [2]) [µM]	T/C (Mus musculus) [%]	ID50 (L1210 [3])
Nc1ccn([C@H]2C[C@H](N)[C@@H](CO)O2)c(=O)n1	4	0.7	283	
N[C@H]1C[C@H](n2ccc(=O)[nH]c2=O)O[C@@H]1CO	50	18		
[N-]=[N+]=N[C@H]1C[C@H](n2ccc(=O)[nH]c2=O)O[C@@H]1CO				inactive
[N-]=[N+]=N[C@H]1C[C@H](n2ccc(N)nc2=O)O[C@@H]1CO				inactive
